Test results: the supplement of paper PMC6045584
± gives the standard deviation of the averaged measurements.

How the values were obtained:
[1] = compound: CCn1c(C(=O)N(C2CC2)C2CC2)cc2c3c(ncn3C)c(Nc3cc(C)n(C)n3)nc21; assay: surviving fraction relative to DMSO-only wells; higher = less growth inhibition; conditions: exposure time: 5 days
Method in brief: (§1)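 Inhibitors at 0.5, 1, 5, 10, 50, 100, 500 and 1000 nM were applied continuously for five days to tumour cell lines seeded in log phase at 250–500 cells per well in 384-well plates 24 hours earlier. Viability was measured by CellTiter-Glo luminescence and expressed as surviving fraction relative to the median of DMSO-only wells. Luminescence was taken after 10 minutes at room temperature.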

FORETINIB = compound: COc1cc2c(Oc3ccc(NC(=O)C4(C(=O)Nc5ccc(F)cc5)CC4)cc3F)ccnc2cc1OCCCN1CCOCC1 [FORETINIB]; assay: as above; conditions: exposure time: 5 days
Method in brief: as §1

Test System	surviving fraction ([1]; 0.5 nM)	surviving fraction ([1]; 1 nM)	surviving fraction ([1]; 5 nM)	surviving fraction ([1]; 10 nM)	surviving fraction ([1]; 50 nM)	surviving fraction ([1]; 100 nM)	surviving fraction ([1]; 500 nM)	surviving fraction ([1]; 1000 nM)	surviving fraction (FORETINIB; 0.5 nM)	surviving fraction (FORETINIB; 1 nM)	surviving fraction (FORETINIB; 5 nM)	surviving fraction (FORETINIB; 10 nM)	surviving fraction (FORETINIB; 50 nM)	surviving fraction (FORETINIB; 100 nM)	surviving fraction (FORETINIB; 500 nM)	surviving fraction (FORETINIB; 1000 nM)
HUO3N1 BONE	0.9853 ± 0.0075	0.999 ± 0.029	1.05 ± 0.057	1.03 ± 0.048	1.07 ± 0.021	1 ± 0.048	0.967 ± 0.038	0.868 ± 0.013	1 ± 0.035	0.992 ± 0.079	1.06 ± 0.059	1.01 ± 0.039	0.903 ± 0.04	0.819 ± 0.006	0.619 ± 0.02	0.412 ± 0.025
JIMT1 BREAST	0.975 ± 0.024	0.969 ± 0.034	0.973 ± 0.026	1.01 ± 0.013	1.07 ± 0.046	1.06 ± 0.02	1.06 ± 0.014	1.06 ± 0.0097	0.991 ± 0.015	0.978 ± 0.032	1.03 ± 0.058	1.03 ± 0.031	1 ± 0.041	1.01 ± 0.11	0.62 ± 0.033	0.484 ± 0.087
JURKAT HAEMATOPOIETIC AND LYMPHOID TISSUE	1.092 ± 0.0091	1.08 ± 0.017	1.09 ± 0.021	1.05 ± 0.037	1.05 ± 0.036	1.04 ± 0.034	1.08 ± 0.018	1.09 ± 0.014	1 ± 0.034	0.979 ± 0.036	1.02 ± 0.031	0.971 ± 0.023	0.923 ± 0.019	0.976 ± 0.039	0.61 ± 0.021	0.601 ± 0.03
KPD BONE	1.01 ± 0.074	0.951 ± 0.089	1.01 ± 0.043	0.991 ± 0.074	1.04 ± 0.047	1.01 ± 0.14	0.945 ± 0.017	0.99 ± 0.056	1.05 ± 0.059	1.03 ± 0.029	1.09 ± 0.03	1.11 ± 0.026	1.07 ± 0.04	1.04 ± 0.018	0.63 ± 0.037	0.303 ± 0.028
LM7 BONE	0.967 ± 0.042	0.976 ± 0.03	1.07 ± 0.041	1.03 ± 0.097	1.04 ± 0.047	1.06 ± 0.073	0.994 ± 0.12	0.896 ± 0.03	1.02 ± 0.028	1.04 ± 0.06	1.05 ± 0.016	1.02 ± 0.011	0.997 ± 0.015	1.03 ± 0.058	0.725 ± 0.042	0.216 ± 0.013
